Source: patent publication US4474764A, “3-Amino-2-hydroxy-4-phenylbutanoic acid derivatives and pharmaceutical composition containing the same” (Zaidan Hojin Biseibutsu Kagaku Kenkyu Kai, priority 1981, dated 1984)

Legend:
enkephalinase = molecular target: T1, enkephalinase (Rattus norvegicus, UniProt P07861); test: Inhibitory activity against enkephalinase (Test 1); format: biochemical; settings: enkephalinase from corpus striatum of rat brain; substrate methionine-enkephaline; 37° C., 1 hour; pH 7.7
T1 construct: homogenizing corpus striatum of rat brain and by partial purification of the brain homogenate; from tissue; host or cells: rat brain corpus striatum, homogenate partially purified by the method of Gorenstein et al
T1 sequence (P07861 1-750): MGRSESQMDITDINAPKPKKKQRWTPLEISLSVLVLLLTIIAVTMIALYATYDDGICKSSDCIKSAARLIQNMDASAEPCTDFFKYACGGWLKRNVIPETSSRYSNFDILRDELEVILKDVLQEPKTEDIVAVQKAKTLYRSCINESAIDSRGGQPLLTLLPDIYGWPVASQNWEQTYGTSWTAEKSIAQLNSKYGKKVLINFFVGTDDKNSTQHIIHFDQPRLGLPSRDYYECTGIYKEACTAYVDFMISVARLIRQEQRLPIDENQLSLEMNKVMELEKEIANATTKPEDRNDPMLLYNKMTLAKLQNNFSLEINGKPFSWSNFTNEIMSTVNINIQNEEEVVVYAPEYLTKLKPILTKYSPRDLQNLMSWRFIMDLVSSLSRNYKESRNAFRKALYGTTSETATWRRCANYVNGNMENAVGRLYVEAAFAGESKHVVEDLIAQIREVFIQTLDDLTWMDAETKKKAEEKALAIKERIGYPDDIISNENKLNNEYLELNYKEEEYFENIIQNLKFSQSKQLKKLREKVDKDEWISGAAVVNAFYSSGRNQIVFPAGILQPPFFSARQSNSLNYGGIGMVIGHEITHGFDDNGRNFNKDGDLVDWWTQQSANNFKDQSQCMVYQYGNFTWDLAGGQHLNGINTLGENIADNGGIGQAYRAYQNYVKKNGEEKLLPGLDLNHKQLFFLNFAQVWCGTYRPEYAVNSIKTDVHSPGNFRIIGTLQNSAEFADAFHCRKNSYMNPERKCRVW
Protocol: Inhibitory activity against enkephalinase were tested.
A preparation of enkephalinase was made by homogenizing corpus striatum of rat brain and by partial purification of the brain homogenate according to the method of Gorenstein et al (see the "Life Science" Vol. 25, 2065~2070 (1979) Pergamon Press, U.S.A.).
A test compound was dissolved in a mixture of Trishydrochloride buffered solution (pH 7.7) and an aqueous 1% Triton X100 (an active surfectant) to such a concentration that the added quantity of the test compound amounted to one-tenth of the volume of said mixture. To the solution of the test compound so prepared was added the enkephalinase, followed by incubation for five minutes at ambient temperature and further by addition of methionine-enkephaline as the substrate. The admixture so obtained was incubated at 37° C. for 1 hour and then subjected to a high-performance liquid chromatography in such a manner that the Tyr-Gly-GLy (a fragment of the methionine-enkephaline) formed by the enzymatic degradation of methionine-enkephaline was isolated in some fractions of the eluate and the quantity of Tyr-Gly-GLy was determined by an electro-chemically analysing detector. In this way, IC50 value of the test compound, namely the dose of the test compound required for 50% inhibition of the enkephalinase was measured.

[1] = tested on: morphine analgesia-non-effective Wistar rats; test: Effect of enhancing morphine analgesia, tail-flick latency (Test 2); format: in vivo, rat; settings: 250 mg/kg test compound i.p., 10 minutes later 0.5 mg/kg morphine i.p.; versus 0.5 mg/kg morphine alone; tail-flick latency
Protocol: Effect of enhancing morphine analgesia was tested.
To Wistar rats (10 week-age, male, body weight 250~300 g) was given intraperitoneally morphine at a dose of 0.5 mg/kg, and these rats receiving the morphine were classified into the group of morphine analgesia-effective rats and the group of morphine analgesia-non-effectiverats according to the classification method described in the "Showa Igakukai Zasshi" Vol. 39, No. 5, pages 537~542 (1979). […] The effect of analgesia was evaluated according to the method of tail-flick latency of rats described in the "Showa Igakukai Zasshi" Vol. 39, No. 5, pages 537~542 (1979). The evaluation of pain threshold of rats according to the tail-flick latency method was made as follows: Radiant heat stimulus was applied to the region of the rat tail which positioned 1 cm away from the tail tip and which had been colored black with a black-dye, and the time of latency involved in the tail flick, namely the period of time lapsing between the time of application of the heat stimulus and the time of the reflective flick response of the tail was measured. The quantity of the heat applied was so controlled that the average time of latency of the tail-flick response appearing in the control group of rats (receiving neither the test compound nor the morphine) was about 2.0 seconds. The tests were accomplished as long as the maximum value for the tail-flick latency was 7.0 seconds or less, as otherwise the skin of the rat tail could be damaged by the application of heat. In other words, if the time for the tail-flick latency was longer than 7.0 seconds, the tests were stopped to prevent the damage of the rat tail. The radiant heat stimulus was repeated 5 times for each test rat at an interval of 15 minutes and the times of latency in the flick response of the tail measured in each test were averaged. In each test, 5 rats were used.
The difference in the time of the tail-flick latency between the test rats (receiving 250 mg/kg of the test compound plus 0.5 mg/kg of morphine) and the control rats (receiving 0.5 mg/kg of morphine alone) was calculated, and the effect for enhancement of morphine analgesia was estimated in term of the value of percentages which were calculated by the following equation: [formula]

SMILES	IC50 (enkephalinase) [µM]	Morphine Analgesia enhancement [1] [%]
CC(C)C[C@H](NC(=O)[C@@H](O)[C@H](N)Cc1ccccc1)C(=O)O [Bestatin, (2S,3R)-3-amino-2-hydroxy-4-phenylbutanoyl-(S)-leucine, reference compound]	590	19.9
NCC(=O)N[C@H](Cc1ccccc1)[C@H](O)C(=O)O [Compound 1, (2S,3R)-3-N--glycylamino-2-hydroxy-4-phenylbutanoic acid]	2780	25.7
COC(=O)[C@@H](O)[C@@H](Cc1ccccc1)NC(=O)CN.Cl [Compound 2, (2S,3R)-3-N--glycylamino-2-hydroxy-4-phenylbutanoic acid methyl ester hydrochloride]	300	11.6
COC(=O)[C@@H](O)[C@@H](Cc1ccccc1)NC(=O)CNC(C)=O [Compound 3, (2S,3R)-3-N--(N'--acetylglycyl)amino-2-hydroxy-4-phenylbutanoic acid methyl ester]	5480	22.9
NCC(=O)NCC(=O)N[C@H](Cc1ccccc1)[C@H](O)C(=O)O [Compound 4, (2S,3R)-3-N--glycylglycylamino-2-hydroxy-4-phenylbutanoic acid]	240	10.6
COC(=O)[C@@H](O)[C@@H](Cc1ccccc1)NC(=O)CNC(=O)CN.Cl [Compound 5, (2S,3R)-3-N--glycylglycylamino-2-hydroxy-4-phenylbutanoic acid methyl ester hydrochloride]	1520	19.0
CC(=O)NCC(=O)NCC(=O)N[C@H](Cc1ccccc1)[C@H](O)C(=O)O [Compound 6, (2S,3R)-3-N--(N'--acetylglycylglycyl)amino-2-hydroxy-4-phenylbutanoic acid]	2450	32.5
CNCC(=O)N[C@H](Cc1ccccc1)[C@H](O)C(=O)O [Compound 7, (2S,3R)-3-N--(N'--methylglycyl)amino-2-hydroxy-4-phenylbutanoic acid]	–	16.2
CC(C)C[C@H](N)C(=O)N[C@H](Cc1ccccc1)[C@H](O)C(=O)O [Compound 8, (2S,3R)-3-N--(S)--leucylamino-2-hydroxy-4-phenylbutanoic acid]	2560	22.5
CC(C)C[C@@H](N)C(=O)N[C@H](Cc1ccccc1)[C@H](O)C(=O)O [Compound 9, (2S,3R)-3-N--(R)-leucylamino-2-hydroxy-4-phenylbutanoic acid]	2480	26.3
NCC[C@H](O)C(=O)N[C@H](Cc1ccccc1)[C@H](O)C(=O)O [Compound 11, (2S,3R)-3-N--[4'-amino-(2'S)--2'-hydroxybutanoyl]amino-2-hydroxy-4-phenylbutanoic acid]	1280	21.6
N[C@H](Cc1ccccc1)[C@H](O)C(=O)N[C@H](Cc1ccccc1)[C@H](O)C(=O)O [Compound 12, (2S,3R)-3-N--[(2'S,3'R)-3'-amino-2'-hydroxy-4'-phenylbutanoyl]amino-2-hydroxy-4-phenylbutanoic acid]	> 20000	15.7
CC(=O)NCC(=O)NCC(=O)N[C@H](Cc1ccccc1)[C@H](O)C(=O)[O-].[Na+] [Compound 13, (2S,3R)-3-N--(N'--acetylglycylglycyl)amino-2-hydroxy-4-phenylbutanoic acid sodium salt]	–	33.1
C[C@@H](N)C(=O)N[C@H](Cc1ccccc1)[C@H](O)C(=O)O [Compound 14, (2S,3R)-3-N--(R)-alanylamino-2-hydroxy-4-phenylbutanoic acid]	2140	16.8
C[C@@H](NC=O)C(=O)N[C@H](Cc1ccccc1)[C@H](O)C(=O)[O-].[Na+] [Compound 15, (2S,3R)-3-N--(N'--formyl-(R)-alanyl)amino-2-hydroxy-4-phenylbutanoic acid sodium salt]	150	19.7
N[C@@H](Cc1ccc(O)cc1)C(=O)NCC(=O)NCC(=O)N[C@@H](Cc1ccccc1)[C@@H](O)C(=O)O [Compound 16, (2R,3S)--3-N--(S)--tyrosylglycylglycylamino-2-hydroxy-4-phenylbutanoic acid]	440	15.2
N[C@H](Cc1ccccc1)C(=O)N[C@H](Cc1ccc(O)cc1)[C@H](O)C(=O)O [Compound 17, (2S,3R)-3-N--(R)-phenylalanylamino-2-hydroxy-4-p-hydroxy-phenylbutanoic acid]	130	32.1
CC(C)C[C@@H](N)C(=O)N[C@H](Cc1ccccc1)[C@@H](O)C(=O)O [Compound 18, (2R,3R)-3-N--(R)-leucylamino-2-hydroxy-4-phenylbutanoic acid]	2650	23.4
